The text below walks through data of ChEMBL document CHEMBL5338754, “Identification of Binding Sites in the Nucleotide-Binding Domain of P-Glycoprotein for a Potent and Nontoxic Modulator, the Amine-Containing Monomeric Flavonoid FM04” (J Med Chem, 2023).

Data set [1] concerns the target ATP-dependent translocase ABCB1 (Homo sapiens, UniProt P08183, I1115E). Put plainly: Negative allosteric modulator activity at human P-gp I1115E mutant expressed in HEK293FT cells assessed as increase in intracellular doxorubicin accumulation using doxorubicin as substrate at 1 uM incubated for 150 mins by microplate reader assay (reference value: 94.7 +/- 5.1 %). In kind it is cell-based. The following applies: 2.5 h.

Data set [2] addresses P-gp (ABCB1) Q1193A mutant (Homo sapiens, UniProt P08183, Q1193A). The data set can be described thus: Activation of P-gp ATPase activity in human P-gp Q1193A mutant expressed in HEK293FT cell microsomes assessed as fold change of ATPase activity at 20 uM incubated for 1 hr in presence of ATP by Glo-luminescence based microplate reader assay relative to DMSO. Further details: species or system Microsome. The following applies: read-out: FC.

Data set [3] addresses ATP-dependent translocase ABCB1 (Homo sapiens, UniProt P08183, T1226A). The data set can be described thus: Negative allosteric modulator activity at human P-gp T1226A mutant expressed in HEK293FT cells assessed as fold change in intracellular doxorubicin accumulation using doxorubicin as substrate at 1 uM incubated for 150 mins by microplate reader assay relative to DMSO. In kind it is cell-based. The following applies: 2.5 h.

In data set [4] the target is ATP-dependent translocase ABCB1 (Homo sapiens, UniProt P08183, T1226F). The data set can be described thus: Negative allosteric modulator activity at human P-gp T1226F mutant expressed in HEK293FT cells assessed as fold change in intracellular doxorubicin accumulation using doxorubicin as substrate at 1 uM incubated for 150 mins by microplate reader assay relative to DMSO. It counts as cell-based. The conditions noted are these: 2.5 h.

Data set [5] has as its target ATP-dependent translocase ABCB1 (Homo sapiens, UniProt P08183, Q1193N). Put plainly: Negative allosteric modulator activity at human P-gp Q1193N mutant expressed in HEK293FT cells assessed as increase in intracellular doxorubicin accumulation using doxorubicin as substrate at 1 uM incubated for 150 mins by microplate reader assay (reference value: 59.7 +/- 2.1 %). It counts as cell-based. The conditions noted are these: 2.5 h.

Data set [6] concerns the target ATP-dependent translocase ABCB1 (Homo sapiens, UniProt P08183, Q1193A). Put plainly: Negative allosteric modulator activity at human P-gp Q1193A mutant expressed in HEK293FT cells assessed as increase in intracellular doxorubicin accumulation using doxorubicin as substrate at 1 uM incubated for 150 mins by microplate reader assay (reference value: 53.6 +/- 3 %). In kind it is cell-based. The conditions noted are these: 2.5 h.

The target of data set [7] is ATP-dependent translocase ABCB1 (Homo sapiens, UniProt P08183, Q1193T). Put plainly: Negative allosteric modulator activity at human P-gp Q1193T mutant expressed in HEK293FT cells assessed as increase in intracellular doxorubicin accumulation using doxorubicin as substrate at 1 uM incubated for 150 mins by microplate reader assay (reference value: 65.5 +/- 0.9 %). In kind it is cell-based. The conditions noted are these: 2.5 h.

For data set [8], the target named is T1, ATP-dependent translocase ABCB1 (Homo sapiens, UniProt P08183). The data set can be described thus: Negative allosteric modulator activity at human wildtype P-gp expressed in HEK293FT cells assessed as increase in intracellular doxorubicin accumulation using doxorubicin as substrate at 1 uM incubated for 150 mins by microplate reader assay (reference value: 47.9 +/- 3.5 %). In kind it is cell-based. The following applies: 2.5 h.
T1 sequence (P08183 whole entry): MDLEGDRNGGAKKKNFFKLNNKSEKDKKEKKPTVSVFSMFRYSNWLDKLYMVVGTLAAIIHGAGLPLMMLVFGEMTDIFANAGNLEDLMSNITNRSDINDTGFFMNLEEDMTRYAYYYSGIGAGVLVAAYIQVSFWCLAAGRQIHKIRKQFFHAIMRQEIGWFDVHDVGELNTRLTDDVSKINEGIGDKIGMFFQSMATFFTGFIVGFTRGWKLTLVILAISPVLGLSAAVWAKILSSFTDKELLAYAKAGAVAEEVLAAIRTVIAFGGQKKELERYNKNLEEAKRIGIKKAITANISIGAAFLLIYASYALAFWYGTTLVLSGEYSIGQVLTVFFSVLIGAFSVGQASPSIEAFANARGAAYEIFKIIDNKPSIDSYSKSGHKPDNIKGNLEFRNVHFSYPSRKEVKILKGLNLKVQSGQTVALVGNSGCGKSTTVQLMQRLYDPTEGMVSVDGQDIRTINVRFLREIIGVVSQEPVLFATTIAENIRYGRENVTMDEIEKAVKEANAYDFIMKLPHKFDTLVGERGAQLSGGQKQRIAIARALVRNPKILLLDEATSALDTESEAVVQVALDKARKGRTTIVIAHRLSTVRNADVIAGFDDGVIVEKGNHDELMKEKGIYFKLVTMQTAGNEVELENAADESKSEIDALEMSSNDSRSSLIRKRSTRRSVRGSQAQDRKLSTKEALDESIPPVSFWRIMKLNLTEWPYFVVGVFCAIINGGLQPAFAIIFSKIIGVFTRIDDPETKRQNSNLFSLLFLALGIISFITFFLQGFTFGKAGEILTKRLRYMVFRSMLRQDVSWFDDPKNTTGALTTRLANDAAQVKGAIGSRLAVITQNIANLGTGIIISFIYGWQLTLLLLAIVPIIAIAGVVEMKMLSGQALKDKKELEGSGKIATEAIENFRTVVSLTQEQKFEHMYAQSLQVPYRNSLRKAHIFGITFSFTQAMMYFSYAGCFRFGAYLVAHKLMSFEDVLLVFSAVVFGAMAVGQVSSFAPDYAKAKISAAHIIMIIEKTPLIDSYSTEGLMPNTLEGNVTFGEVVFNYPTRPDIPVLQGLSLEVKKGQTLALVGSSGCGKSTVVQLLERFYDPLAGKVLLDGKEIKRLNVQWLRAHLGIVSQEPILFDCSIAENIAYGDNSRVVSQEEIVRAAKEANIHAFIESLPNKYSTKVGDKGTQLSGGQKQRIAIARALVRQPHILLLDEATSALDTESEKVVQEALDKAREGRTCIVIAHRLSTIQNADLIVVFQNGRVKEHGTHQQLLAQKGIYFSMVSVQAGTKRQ

The target of data set [9] is T1, ATP-dependent translocase ABCB1. Put plainly: Activation of P-gp ATPase activity in wildtype human P-gp expressed in HEK293FT cell microsomes at 20 uM incubated for 1 hr in presence of ATP by Glo-luminescence based microplate reader assay (reference value: 0.32 +/- 0.02 pmol/min/microg). Also on record: species or system Microsome.
In data set [10] the target is ATP-dependent translocase ABCB1 (Homo sapiens, UniProt P08183, Q1193K). The data set can be described thus: Negative allosteric modulator activity at human P-gp Q1193K mutant expressed in HEK293FT cells assessed as fold change in intracellular doxorubicin accumulation using doxorubicin as substrate at 1 uM incubated for 150 mins by microplate reader assay relative to DMSO. It counts as cell-based. The conditions noted are these: 2.5 h.

Data set [11] addresses ATP-dependent translocase ABCB1 (Homo sapiens, UniProt P08183, G1114I). The data set can be described thus: Negative allosteric modulator activity at human P-gp G1114I mutant expressed in HEK293FT cells assessed as fold change in intracellular doxorubicin accumulation using doxorubicin as substrate at 1 uM incubated for 150 mins by microplate reader assay relative to DMSO. The following applies: 2.5 h. It counts as cell-based.

The target of data set [12] is ATP-dependent translocase ABCB1 (Homo sapiens, UniProt P08183, I1115W). Put plainly: Negative allosteric modulator activity at human P-gp I1115W mutant expressed in HEK293FT cells assessed as fold change in intracellular doxorubicin accumulation using doxorubicin as substrate at 1 uM incubated for 150 mins by microplate reader assay relative to DMSO. In kind it is cell-based. The following applies: 2.5 h.

For data set [13], the target named is ATP-dependent translocase ABCB1 (Homo sapiens, UniProt P08183, L1113A). Put plainly: Negative allosteric modulator activity at human P-gp L1113A mutant expressed in HEK293FT cells assessed as increase in intracellular doxorubicin accumulation using doxorubicin as substrate at 1 uM incubated for 150 mins by microplate reader assay (reference value: 45.6 +/- 1.5 %). In kind it is cell-based. The conditions noted are these: 2.5 h.
Sequence of ATP-dependent translocase ABCB1 (Homo sapiens, UniProt P08183, L1113A) (P08183 whole entry L1113A): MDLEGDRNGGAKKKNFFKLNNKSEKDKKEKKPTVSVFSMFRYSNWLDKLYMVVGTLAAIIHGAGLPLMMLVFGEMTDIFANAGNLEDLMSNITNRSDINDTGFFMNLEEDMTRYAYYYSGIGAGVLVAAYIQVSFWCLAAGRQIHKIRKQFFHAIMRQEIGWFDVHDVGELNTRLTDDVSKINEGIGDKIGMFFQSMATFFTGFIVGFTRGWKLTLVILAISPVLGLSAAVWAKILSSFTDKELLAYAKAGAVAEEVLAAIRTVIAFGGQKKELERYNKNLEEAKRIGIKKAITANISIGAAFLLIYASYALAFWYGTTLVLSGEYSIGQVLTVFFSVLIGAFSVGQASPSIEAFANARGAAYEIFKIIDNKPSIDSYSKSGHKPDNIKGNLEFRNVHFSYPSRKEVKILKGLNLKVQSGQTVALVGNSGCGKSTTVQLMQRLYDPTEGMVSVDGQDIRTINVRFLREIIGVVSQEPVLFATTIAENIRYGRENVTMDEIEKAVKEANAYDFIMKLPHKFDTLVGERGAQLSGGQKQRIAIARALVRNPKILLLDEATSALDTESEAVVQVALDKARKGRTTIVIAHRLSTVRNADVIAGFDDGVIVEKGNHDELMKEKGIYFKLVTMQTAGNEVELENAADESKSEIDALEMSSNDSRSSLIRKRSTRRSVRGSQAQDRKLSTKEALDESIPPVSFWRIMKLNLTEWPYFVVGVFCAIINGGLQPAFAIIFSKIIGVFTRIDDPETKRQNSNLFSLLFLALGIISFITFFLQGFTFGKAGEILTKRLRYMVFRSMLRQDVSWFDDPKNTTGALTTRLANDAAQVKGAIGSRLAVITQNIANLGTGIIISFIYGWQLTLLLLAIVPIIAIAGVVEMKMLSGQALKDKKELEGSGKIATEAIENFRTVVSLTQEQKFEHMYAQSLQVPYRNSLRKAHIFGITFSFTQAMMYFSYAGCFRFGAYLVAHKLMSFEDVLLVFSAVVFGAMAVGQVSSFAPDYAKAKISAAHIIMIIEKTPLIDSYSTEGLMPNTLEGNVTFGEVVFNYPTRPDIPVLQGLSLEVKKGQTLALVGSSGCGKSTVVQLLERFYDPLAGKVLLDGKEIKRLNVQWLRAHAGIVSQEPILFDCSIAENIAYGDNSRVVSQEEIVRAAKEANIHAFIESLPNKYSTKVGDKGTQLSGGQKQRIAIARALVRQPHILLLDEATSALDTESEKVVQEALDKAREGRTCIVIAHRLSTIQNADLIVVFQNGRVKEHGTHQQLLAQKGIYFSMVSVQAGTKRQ

Data set [14] deals with T2, ATP-dependent translocase ABCB1 (Homo sapiens, UniProt P08183, Q1193C). The data set can be described thus: Activation of P-gp ATPase activity in human P-gp Q1193C mutant expressed in HEK293FT cell microsomes at 20 uM incubated for 1 hr in presence of ATP by Glo-luminescence based microplate reader assay (reference value: 0.45 +/- 0.04 pmol/min/microg). Further details: species or system Microsome.
T2 sequence (P08183 whole entry Q1193C): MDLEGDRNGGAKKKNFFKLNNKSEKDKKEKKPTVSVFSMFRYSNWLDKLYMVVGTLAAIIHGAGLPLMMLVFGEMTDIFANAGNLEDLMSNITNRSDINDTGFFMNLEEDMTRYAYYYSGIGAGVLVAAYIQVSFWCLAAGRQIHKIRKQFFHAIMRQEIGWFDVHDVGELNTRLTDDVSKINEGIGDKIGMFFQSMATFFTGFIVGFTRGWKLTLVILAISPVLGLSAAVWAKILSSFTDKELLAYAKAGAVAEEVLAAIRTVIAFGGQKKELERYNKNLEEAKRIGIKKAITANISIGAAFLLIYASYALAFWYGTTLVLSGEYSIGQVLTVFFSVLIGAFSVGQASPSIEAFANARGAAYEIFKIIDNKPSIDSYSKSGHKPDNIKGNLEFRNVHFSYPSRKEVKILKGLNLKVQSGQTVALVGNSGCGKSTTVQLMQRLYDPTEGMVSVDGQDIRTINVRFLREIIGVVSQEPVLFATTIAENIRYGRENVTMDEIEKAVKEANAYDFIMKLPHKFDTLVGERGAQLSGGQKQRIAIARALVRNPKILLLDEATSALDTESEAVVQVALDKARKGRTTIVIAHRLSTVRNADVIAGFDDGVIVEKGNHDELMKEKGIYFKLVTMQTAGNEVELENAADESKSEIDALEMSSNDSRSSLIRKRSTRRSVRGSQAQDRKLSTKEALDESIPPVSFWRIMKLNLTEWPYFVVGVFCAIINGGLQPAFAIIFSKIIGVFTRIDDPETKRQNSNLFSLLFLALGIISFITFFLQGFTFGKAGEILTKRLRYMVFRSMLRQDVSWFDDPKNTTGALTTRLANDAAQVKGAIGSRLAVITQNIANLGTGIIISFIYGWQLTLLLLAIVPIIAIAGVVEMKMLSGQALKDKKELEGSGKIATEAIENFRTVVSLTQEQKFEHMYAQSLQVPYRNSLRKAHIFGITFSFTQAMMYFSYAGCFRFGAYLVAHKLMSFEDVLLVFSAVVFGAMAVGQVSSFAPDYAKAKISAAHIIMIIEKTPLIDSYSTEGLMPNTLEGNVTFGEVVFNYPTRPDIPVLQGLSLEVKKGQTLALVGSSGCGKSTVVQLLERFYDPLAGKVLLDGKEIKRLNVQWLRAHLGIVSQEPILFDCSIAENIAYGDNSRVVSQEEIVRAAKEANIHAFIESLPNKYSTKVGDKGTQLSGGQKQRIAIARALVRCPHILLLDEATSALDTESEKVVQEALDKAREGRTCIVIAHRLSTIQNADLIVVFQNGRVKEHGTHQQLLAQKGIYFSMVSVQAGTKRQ

The target of data set [15] is ATP-dependent translocase ABCB1 (Homo sapiens, UniProt P08183, T1226Y). The data set can be described thus: Negative allosteric modulator activity at human P-gp T1226Y mutant expressed in HEK293FT cells assessed as fold change in intracellular doxorubicin accumulation using doxorubicin as substrate at 1 uM incubated for 150 mins by microplate reader assay relative to DMSO. In kind it is cell-based. The conditions noted are these: 2.5 h.

The target in data set [16] is ATP-dependent translocase ABCB1 (Homo sapiens, UniProt P08183, I1115K). The data set can be described thus: Negative allosteric modulator activity at human P-gp I1115K mutant expressed in HEK293FT cells assessed as increase in intracellular doxorubicin accumulation using doxorubicin as substrate at 1 uM incubated for 150 mins by microplate reader assay (reference value: 97.8 +/- 3.1 %). It counts as cell-based. The following applies: 2.5 h.

In data set [17] the target is ATP-dependent translocase ABCB1 (Homo sapiens, UniProt P08183, I1115L). Put plainly: Negative allosteric modulator activity at human P-gp I1115L mutant expressed in HEK293FT cells assessed as fold change in intracellular doxorubicin accumulation using doxorubicin as substrate at 1 uM incubated for 150 mins by microplate reader assay relative to DMSO. In kind it is cell-based. The conditions noted are these: 2.5 h.

For data set [18], the target named is ATP-dependent translocase ABCB1 (Homo sapiens, UniProt P08183, H1195A). Put plainly: Negative allosteric modulator activity at human P-gp H1195A mutant expressed in HEK293FT cells assessed as fold change in intracellular doxorubicin accumulation using doxorubicin as substrate at 1 uM incubated for 150 mins by microplate reader assay relative to DMSO. It counts as cell-based. The following applies: 2.5 h.

In data set [19] the target is T2, ATP-dependent translocase ABCB1. Put plainly: Negative allosteric modulator activity at human P-gp Q1193C mutant expressed in HEK293FT cells assessed as increase in intracellular doxorubicin accumulation using doxorubicin as substrate at 1 uM incubated for 150 mins by microplate reader assay (reference value: 63 +/- 2.5 %). It counts as cell-based. The following applies: 2.5 h.

Sequence of ATP-dependent translocase ABCB1 (Homo sapiens, UniProt P08183, G1114I) (P08183 whole entry G1114I): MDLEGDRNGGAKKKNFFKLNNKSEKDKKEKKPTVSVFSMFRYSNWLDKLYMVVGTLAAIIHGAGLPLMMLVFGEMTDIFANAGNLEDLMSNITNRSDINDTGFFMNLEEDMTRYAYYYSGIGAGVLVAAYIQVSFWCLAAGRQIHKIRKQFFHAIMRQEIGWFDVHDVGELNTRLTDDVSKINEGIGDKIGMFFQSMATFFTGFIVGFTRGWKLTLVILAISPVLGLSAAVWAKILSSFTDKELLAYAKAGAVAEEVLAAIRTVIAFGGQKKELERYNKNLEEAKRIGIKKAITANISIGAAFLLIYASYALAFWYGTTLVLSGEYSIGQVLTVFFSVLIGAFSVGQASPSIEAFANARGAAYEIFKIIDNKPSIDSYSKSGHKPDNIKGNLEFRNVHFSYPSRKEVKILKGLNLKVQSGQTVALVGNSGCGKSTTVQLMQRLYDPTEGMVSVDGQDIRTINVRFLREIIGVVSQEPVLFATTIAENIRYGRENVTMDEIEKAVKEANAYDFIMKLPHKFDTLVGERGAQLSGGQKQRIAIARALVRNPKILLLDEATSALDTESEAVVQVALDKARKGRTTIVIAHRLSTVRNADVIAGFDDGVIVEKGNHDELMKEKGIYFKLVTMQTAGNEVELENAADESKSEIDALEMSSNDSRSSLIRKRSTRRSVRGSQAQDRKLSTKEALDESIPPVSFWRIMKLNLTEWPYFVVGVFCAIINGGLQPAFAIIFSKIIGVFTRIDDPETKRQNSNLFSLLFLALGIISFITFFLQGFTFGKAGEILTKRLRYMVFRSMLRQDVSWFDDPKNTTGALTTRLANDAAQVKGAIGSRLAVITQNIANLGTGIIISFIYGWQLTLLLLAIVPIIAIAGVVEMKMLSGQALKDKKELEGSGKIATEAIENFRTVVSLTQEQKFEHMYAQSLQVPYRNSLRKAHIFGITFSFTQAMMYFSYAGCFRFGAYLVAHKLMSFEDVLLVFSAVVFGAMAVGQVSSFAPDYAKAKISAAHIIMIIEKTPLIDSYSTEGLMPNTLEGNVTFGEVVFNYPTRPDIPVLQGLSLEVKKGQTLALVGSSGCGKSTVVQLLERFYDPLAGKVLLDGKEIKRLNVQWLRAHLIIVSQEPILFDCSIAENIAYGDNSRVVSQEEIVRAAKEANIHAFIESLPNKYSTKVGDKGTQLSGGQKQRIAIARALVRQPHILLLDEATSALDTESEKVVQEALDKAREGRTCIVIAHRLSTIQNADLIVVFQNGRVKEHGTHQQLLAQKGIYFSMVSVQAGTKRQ

In the case of `O=c1cc(-c2ccc(OCCOCCNCc3ccccc3)cc2)oc2ccccc12`, the Activity was 97.8% in [1]; 91.9% in data set [5]; 59.8% in [6]; 85.4% in data set [7]; 90.1% in [8]; 0.52 pmol/min/µg in data set [9]. The Activity was found to be 82.2% in [13], 0.57 pmol/min/µg in [14], 100.1% in data set [16] and 81.4% in data set [19]. Besides, the fold induction at 1 h, 20 µM in data set [2] turned out to be 1.1. The “fold change (FC)” value in data set [3] came to 1; in data set [4], 1.5; in data set [10], 1.3; in [11] it was 1; in data set [12], 1; in [15], 1.5. Moreover, the “fold change (FC)” value in data set [17] is 1.7; in data set [18], 1.1.
